Columns and labels:
[1] = test system: HCC 2998; assay: Antiproliferative activity against human HCC 2998 cells assessed as cell growth inhibition measured after 48 hrs by SRB assay; type: functional, cell-based; settings: HCC 2998, 48 h
[2] = species: Homo sapiens; assay: Selectivity ratio of IC50 for inhibition of JAK3 (unknown origin) to IC50 for inhibition of ErbB4 (unknown origin); settings: dose 10.0 µM, time 40.0 min
[3] = test system: OVCAR-4; assay: Antiproliferative activity against human OVCAR-4 cells assessed as cell growth inhibition at 10 uM measured after 48 hrs by SRB assay relative to control; type: functional
[4] = target: Vascular endothelial growth factor receptor 2 (Homo sapiens, UniProt P35968); assay: Inhibition of KDR (unknown origin) at 10 uM incubated for 40 mins in presence of Mg/ATP mix by [gamma p33]-ATP based scintillation counting method relative to control
[5] = target: T1, Mitogen-activated protein kinase 10 (Homo sapiens, UniProt P53779); assay: Inhibition of JNK3 (unknown origin) incubated for 40 mins in presence of Mg/ATP mix by [gamma p33]-ATP based scintillation counting method
T1 sequence (P53779 whole entry): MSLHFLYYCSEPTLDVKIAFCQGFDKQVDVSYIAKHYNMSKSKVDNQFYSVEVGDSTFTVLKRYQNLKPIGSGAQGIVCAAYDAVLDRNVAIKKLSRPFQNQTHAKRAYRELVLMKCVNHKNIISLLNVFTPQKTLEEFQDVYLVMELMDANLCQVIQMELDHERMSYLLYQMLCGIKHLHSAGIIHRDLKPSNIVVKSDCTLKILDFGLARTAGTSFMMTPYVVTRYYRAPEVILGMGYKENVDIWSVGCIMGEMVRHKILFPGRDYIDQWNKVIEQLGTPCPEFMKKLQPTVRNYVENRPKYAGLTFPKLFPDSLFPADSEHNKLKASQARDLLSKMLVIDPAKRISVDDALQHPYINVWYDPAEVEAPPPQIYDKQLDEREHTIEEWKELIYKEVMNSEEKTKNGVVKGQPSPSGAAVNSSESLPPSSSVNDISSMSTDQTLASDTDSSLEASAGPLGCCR

[6] = target: Voltage-gated inwardly rectifying potassium channel KCNH2 (Homo sapiens, UniProt Q12809); assay: Inhibition of human ERG incubated for 3 hrs by competitive fluorescence tracer binding based assay
[7] = test system: U-251; assay: Antiproliferative activity against human U-251 cells assessed as cell growth inhibition at 10 uM measured after 48 hrs by SRB assay relative to control; type: functional
[8] = target: T1, Mitogen-activated protein kinase 10; assay: Inhibition of JNK3 (unknown origin) at 10 uM incubated for 40 mins in presence of Mg/ATP mix by [gamma p33]-ATP based scintillation counting method relative to control
[9] = target: T2, Receptor tyrosine-protein kinase erbB-4 (Homo sapiens, UniProt Q15303); assay: Inhibition of ErbB4 expressed in human T47D cells at antiproliferative IC50 in presence of -neuregulin 1 incubated for 90 mins by sandwich ELISA relative to control; type: cell-based
T2 sequence (Q15303 whole entry): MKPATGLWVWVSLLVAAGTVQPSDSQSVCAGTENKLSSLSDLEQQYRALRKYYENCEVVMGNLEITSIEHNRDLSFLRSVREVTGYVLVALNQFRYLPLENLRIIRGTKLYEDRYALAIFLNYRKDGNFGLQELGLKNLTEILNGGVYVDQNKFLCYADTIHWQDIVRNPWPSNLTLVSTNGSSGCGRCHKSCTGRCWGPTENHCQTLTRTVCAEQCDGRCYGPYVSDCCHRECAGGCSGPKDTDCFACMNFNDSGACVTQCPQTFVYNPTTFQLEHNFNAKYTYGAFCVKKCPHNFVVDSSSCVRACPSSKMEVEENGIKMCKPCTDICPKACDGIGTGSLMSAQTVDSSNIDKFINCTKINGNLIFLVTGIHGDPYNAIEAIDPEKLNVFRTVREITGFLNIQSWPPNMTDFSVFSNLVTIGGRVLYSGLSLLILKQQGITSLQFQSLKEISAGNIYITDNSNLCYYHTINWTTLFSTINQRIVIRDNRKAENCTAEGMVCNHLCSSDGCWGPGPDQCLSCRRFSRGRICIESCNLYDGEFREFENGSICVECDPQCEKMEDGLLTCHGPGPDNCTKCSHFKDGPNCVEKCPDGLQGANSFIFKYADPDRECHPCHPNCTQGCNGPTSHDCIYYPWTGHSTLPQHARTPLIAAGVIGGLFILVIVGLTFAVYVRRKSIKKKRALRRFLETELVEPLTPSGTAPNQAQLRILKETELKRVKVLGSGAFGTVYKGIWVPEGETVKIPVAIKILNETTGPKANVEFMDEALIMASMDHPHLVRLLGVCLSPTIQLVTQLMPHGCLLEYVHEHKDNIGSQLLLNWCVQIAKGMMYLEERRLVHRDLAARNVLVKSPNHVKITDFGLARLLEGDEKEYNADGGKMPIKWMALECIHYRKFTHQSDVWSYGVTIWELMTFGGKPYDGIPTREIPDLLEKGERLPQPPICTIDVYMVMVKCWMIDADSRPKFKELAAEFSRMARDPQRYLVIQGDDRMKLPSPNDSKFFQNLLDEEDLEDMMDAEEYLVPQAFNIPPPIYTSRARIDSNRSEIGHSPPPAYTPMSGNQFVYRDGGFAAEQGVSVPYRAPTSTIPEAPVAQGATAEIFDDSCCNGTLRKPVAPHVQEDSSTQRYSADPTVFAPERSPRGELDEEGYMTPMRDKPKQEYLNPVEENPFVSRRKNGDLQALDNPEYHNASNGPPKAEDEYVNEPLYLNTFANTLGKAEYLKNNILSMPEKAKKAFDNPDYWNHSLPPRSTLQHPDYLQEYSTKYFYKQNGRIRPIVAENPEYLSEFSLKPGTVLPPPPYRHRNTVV

[10] = test system: Panel NCI-60 (60 carcinoma cell lines); assay: Growth inhibition of human panel NCI-60 (60 carcinoma cells) assessed as growth percent at 10 uM measured after 48 hrs by SRB assay relative to control; type: functional; settings: read-out: Activity
[11] = test system: SK-MEL-5; assay: Antiproliferative activity against human SK-MEL-5 cells assessed as cell growth inhibition at 10 uM measured after 48 hrs by SRB assay relative to control; type: functional
[12] = test system: NCI-H522; assay: Antiproliferative activity against human NCI-H522 cells assessed as cell growth inhibition measured after 48 hrs by SRB assay; type: functional, cell-based; settings: NCI-H522, 48 h
[13] = test system: MDA-MB-468; assay: Antiproliferative activity against human MDA-MB-468 cells assessed as cell growth inhibition measured after 48 hrs by SRB assay; type: functional, cell-based; settings: MDA-MB-468, 48 h
[14] = test system: UO-31; assay: Antiproliferative activity against human UO-31 cells assessed as cell growth inhibition at 10 uM measured after 48 hrs by SRB assay relative to control; type: functional
[15] = test system: Serine/threonine-protein kinase B-raf (Homo sapiens), P15056 [V600E]; assay: Inhibition of BRAF V600E mutant (unknown origin) at 10 uM incubated for 40 mins in presence of Mg/ATP mix by [gamma p33]-ATP based scintillation counting method relative to control
Serine/threonine-protein kinase B-raf (Homo sapiens), P15056 [V600E], sequence (P15056 whole entry V600E): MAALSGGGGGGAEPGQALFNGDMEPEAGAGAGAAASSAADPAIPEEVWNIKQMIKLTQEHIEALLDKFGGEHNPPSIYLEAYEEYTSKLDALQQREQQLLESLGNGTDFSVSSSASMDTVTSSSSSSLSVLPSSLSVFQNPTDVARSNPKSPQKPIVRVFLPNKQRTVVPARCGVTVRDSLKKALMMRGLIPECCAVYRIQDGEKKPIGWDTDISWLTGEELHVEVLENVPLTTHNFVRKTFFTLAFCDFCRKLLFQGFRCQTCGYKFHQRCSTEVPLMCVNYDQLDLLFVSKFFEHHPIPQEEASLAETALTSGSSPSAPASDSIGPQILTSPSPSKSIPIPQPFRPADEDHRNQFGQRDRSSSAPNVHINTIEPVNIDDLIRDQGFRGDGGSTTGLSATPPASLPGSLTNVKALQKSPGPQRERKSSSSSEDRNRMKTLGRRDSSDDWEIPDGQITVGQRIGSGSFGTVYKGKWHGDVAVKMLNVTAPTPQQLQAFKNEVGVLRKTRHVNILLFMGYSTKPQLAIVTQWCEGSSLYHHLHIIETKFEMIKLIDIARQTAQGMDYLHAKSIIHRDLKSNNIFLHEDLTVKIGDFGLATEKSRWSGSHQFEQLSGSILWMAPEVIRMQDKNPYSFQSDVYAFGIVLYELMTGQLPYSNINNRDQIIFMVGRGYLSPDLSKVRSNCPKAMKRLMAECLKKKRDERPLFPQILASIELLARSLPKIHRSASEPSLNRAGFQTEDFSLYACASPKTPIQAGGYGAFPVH

[16] = test system: UO-31; assay: Antiproliferative activity against human UO-31 cells assessed as cell growth inhibition measured after 48 hrs by SRB assay; type: functional, cell-based; settings: UO-31, 48 h
[17] = species: Homo sapiens; assay: Selectivity ratio of IC50 for inhibition of JNK3 (unknown origin) to IC50 for inhibition of ErbB4 (unknown origin); settings: dose 10.0 µM, time 40.0 min
[18] = test system: U-251; assay: Antiproliferative activity against human U-251 cells assessed as cell growth inhibition measured after 48 hrs by SRB assay; type: functional, cell-based; settings: U-251, 48 h
[19] = target: Tyrosine-protein kinase JAK3 (Homo sapiens) (UniProt P52333); assay: Inhibition of JAK3 (unknown origin) at 10 uM incubated for 40 mins in presence of Mg/ATP mix by [gamma p33]-ATP based scintillation counting method relative to control
Tyrosine-protein kinase JAK3 (Homo sapiens), sequence (P52333 whole entry): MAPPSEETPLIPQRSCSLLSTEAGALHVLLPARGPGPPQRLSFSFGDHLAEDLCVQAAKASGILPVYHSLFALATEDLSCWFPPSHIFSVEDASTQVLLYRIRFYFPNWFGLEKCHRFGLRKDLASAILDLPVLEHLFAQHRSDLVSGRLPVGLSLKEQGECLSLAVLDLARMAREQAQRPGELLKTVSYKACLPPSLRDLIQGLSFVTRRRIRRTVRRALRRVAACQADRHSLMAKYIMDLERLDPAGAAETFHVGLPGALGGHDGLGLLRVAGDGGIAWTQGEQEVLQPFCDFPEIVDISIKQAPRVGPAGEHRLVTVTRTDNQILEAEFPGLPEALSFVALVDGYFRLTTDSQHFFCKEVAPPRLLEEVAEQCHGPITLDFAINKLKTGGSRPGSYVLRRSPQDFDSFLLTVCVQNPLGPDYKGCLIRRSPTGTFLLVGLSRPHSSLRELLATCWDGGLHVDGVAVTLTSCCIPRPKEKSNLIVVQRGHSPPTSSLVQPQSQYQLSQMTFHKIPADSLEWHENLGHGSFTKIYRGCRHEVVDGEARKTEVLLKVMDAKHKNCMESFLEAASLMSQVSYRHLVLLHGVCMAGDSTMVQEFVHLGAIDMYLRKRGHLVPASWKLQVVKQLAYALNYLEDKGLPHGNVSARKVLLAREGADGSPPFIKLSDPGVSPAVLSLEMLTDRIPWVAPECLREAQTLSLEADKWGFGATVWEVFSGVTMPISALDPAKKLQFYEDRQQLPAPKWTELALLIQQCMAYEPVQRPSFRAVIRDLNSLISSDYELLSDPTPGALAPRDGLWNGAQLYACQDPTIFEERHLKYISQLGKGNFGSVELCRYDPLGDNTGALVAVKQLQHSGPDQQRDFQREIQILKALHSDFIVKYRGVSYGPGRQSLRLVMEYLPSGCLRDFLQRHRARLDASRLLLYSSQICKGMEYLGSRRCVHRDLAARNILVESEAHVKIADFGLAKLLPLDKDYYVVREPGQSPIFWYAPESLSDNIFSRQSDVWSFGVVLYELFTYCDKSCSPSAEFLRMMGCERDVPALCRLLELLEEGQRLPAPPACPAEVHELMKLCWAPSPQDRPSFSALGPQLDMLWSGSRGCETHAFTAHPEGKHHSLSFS

[20] = species: Homo sapiens; assay: Selectivity ratio of IC50 for inhibition of EGFR (unknown origin) to IC50 for inhibition of ErbB4 (unknown origin); settings: dose 10.0 µM, time 40.0 min
[21] = target: T2, Receptor tyrosine-protein kinase erbB-4; assay: Potency index, ratio of staurosporine IC50 to test compound IC50 for inhibition of ErbB4 (unknown origin) at 10 uM incubated for 40 mins in presence of Mg/ATP mix by [gamma p33]-ATP based scintillation counting method
[22] = test system: NCI-H522; assay: Antiproliferative activity against human NCI-H522 cells assessed as cell growth inhibition at 10 uM measured after 48 hrs by SRB assay relative to control; type: functional
[23] = test system: MDA-MB-468; assay: Antiproliferative activity against human MDA-MB-468 cells assessed as cell growth inhibition at 10 uM measured after 48 hrs by SRB assay relative to control; type: functional
[24] = target: Fibroblast growth factor receptor 1 (Homo sapiens) (UniProt P11362); assay: Inhibition of FGFR1 (unknown origin) at 10 uM incubated for 40 mins in presence of Mg/ATP mix by [gamma p33]-ATP based scintillation counting method relative to control
[25] = target: Tyrosine-protein kinase JAK3 (Homo sapiens, UniProt P52333); assay: Inhibition of JAK3 (unknown origin) incubated for 40 mins in presence of Mg/ATP mix by [gamma p33]-ATP based scintillation counting method
Tyrosine-protein kinase JAK3, sequence (P52333 whole entry): as above

[26] = test system: DU-145; assay: Antiproliferative activity against human DU-145 cells assessed as cell growth inhibition at 10 uM measured after 48 hrs by SRB assay relative to control; type: functional
[27] = target: Serine/threonine-protein kinase B-raf (Homo sapiens, UniProt P15056); assay: Inhibition of wild type B-RAF (unknown origin) at 10 uM incubated for 40 mins in presence of Mg/ATP mix by [gamma p33]-ATP based scintillation counting method relative to control
Serine/threonine-protein kinase B-raf (Homo sapiens, UniProt P15056), sequence (P15056 whole entry): as the sequence (P15056 whole entry V600E) above, with E600V counted along it

[28] = target: T3, Epidermal growth factor receptor (Homo sapiens, UniProt P00533); assay: Inhibition of EGFR (unknown origin) at 10 uM incubated for 40 mins in presence of Mg/ATP mix by [gamma p33]-ATP based scintillation counting method relative to control
T3 sequence (P00533 whole entry): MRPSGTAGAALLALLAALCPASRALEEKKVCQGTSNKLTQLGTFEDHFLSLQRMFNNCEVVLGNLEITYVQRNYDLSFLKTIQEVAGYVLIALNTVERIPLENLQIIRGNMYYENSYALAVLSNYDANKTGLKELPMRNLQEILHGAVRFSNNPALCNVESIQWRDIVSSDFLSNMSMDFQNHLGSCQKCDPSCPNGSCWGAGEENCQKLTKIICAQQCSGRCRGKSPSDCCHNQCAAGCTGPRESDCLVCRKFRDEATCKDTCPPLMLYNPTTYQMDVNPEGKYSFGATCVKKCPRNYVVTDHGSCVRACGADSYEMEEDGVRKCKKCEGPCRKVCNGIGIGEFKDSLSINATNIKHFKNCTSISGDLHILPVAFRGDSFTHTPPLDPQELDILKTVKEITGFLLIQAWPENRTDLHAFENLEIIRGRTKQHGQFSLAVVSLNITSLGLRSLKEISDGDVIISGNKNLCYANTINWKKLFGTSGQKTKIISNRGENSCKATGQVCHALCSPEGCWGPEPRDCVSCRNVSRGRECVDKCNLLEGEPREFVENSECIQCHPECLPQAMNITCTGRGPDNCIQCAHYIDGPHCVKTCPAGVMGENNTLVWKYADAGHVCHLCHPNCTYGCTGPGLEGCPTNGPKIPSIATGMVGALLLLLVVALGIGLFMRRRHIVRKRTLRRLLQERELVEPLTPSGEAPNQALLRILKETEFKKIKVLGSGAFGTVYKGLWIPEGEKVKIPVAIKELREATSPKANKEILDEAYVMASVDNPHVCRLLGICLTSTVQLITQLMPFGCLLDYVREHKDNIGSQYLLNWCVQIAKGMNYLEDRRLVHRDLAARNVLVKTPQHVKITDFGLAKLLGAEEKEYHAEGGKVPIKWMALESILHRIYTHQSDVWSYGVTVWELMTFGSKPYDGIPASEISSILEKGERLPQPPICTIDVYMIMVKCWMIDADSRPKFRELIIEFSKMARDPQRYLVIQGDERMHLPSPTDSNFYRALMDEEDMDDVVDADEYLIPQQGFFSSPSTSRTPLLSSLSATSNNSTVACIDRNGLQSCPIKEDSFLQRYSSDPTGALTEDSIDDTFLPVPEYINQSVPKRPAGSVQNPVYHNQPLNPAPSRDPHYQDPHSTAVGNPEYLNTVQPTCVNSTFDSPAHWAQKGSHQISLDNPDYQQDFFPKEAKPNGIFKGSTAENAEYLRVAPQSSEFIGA

[29] = test system: MOLT-4; assay: Antiproliferative activity against human MOLT-4 cells assessed as cell growth inhibition measured after 48 hrs by SRB assay; type: functional, cell-based; settings: MOLT-4, 48 h
[30] = test system: SK-MEL-5; assay: Antiproliferative activity against human SK-MEL-5 cells assessed as cell growth inhibition measured after 48 hrs by SRB assay; type: functional, cell-based; settings: SK-MEL-5, 48 h
[31] = target: T2, Receptor tyrosine-protein kinase erbB-4; assay: Inhibition of ErbB4 in human T47D cells assessed as suppression of neuregulin 1-induced autophosphorylation incubated for 90 mins by sandwich ELISA; type: cell-based
[32] = test system: WI-38; assay: Cytotoxicity against human WI-38 cells assessed as cell growth inhibition measured after 48 hrs by SRB assay; type: cell-based; settings: WI-38, 48 h
[33] = target: Serine/threonine-protein kinase B-raf (Homo sapiens, UniProt P15056, V600E); assay: Inhibition of BRAF V600E mutant (unknown origin) incubated for 40 mins in presence of Mg/ATP mix by [gamma p33]-ATP based scintillation counting method
[34] = target: T3, Epidermal growth factor receptor; assay: Inhibition of EGFR (unknown origin) incubated for 40 mins in presence of Mg/ATP mix by [gamma p33]-ATP based scintillation counting method

IC50 [1]: 1.78 µM
Ratio IC50 [2]: 548
inhibition [4]: 24.8%
IC50 [5]: 5.2 µM
inhibition [8]: 66%
inhibition [9]: > 50%
IC50 [12]: 4.91 µM
IC50 [13]: 1.04 µM
inhibition [15]: 62.1%
Ratio IC50 [17]: 341
IC50 [18]: 6.08 µM
inhibition [19]: 77.5%
Ratio IC50 [20]: 651
Ratio IC50 [21]: 9
inhibition [24]: 3.33%
IC50 [25]: 8.35 µM
inhibition [27]: 34.3%
inhibition [28]: 63.6%
IC50 [29]: 1.02 µM
IC50 [30]: 0.51 µM
IC50 [31]: 0.0033 µM
IC50 [33]: 13.2 µM
IC50 [34]: 9.92 µM
SMILES: CS(=O)(=O)c1nccc(-c2c(-c3cccc(OCc4ccccc4)c3)nc3sccn23)n1
inhibition at 10 µM [3]: 26.2%
IC50 [6]: 12.4 µM
inhibition at 10 µM [7]: 10.9%
growth at 10 µM [10]: 63.4%
inhibition at 10 µM [11]: 99.9%
inhibition at 10 µM [14]: 96.3%
IC50 [16]: 1.55 µM
inhibition at 10 µM [22]: 94.1%
inhibition at 10 µM [23]: 165%
inhibition at 10 µM [26]: 160%
IC50 [32]: 8.54 µM

Source: ChEMBL document CHEMBL4831500, “Discovery of first-in-class imidazothiazole-based potent and selective ErbB4 (HER4) kinase inhibitors” (Eur J Med Chem, 2021)
